Patent publication US11572590B2, “Methods for evaluating tumor cell spheroids using 3D microfluidic cell culture device” (Dana-Farber Cancer Institute, Inc., priority 2017, dated 2023)
Read-outs that look alike come from different tables or passages of the source.

Assays:
Assay in all cases: SelectScreen Kinase Profiling, single point inhibition and IC50 for off-target kinases
Assay type in all cases: biochemical
[1] = molecular target: off-target kinases (Homo sapiens, UniProt P07332); conditions: FES (FPS), ZLYTE, ATP Km app
Sequence of off-target kinases (Homo sapiens, UniProt P07332) (P07332 whole entry): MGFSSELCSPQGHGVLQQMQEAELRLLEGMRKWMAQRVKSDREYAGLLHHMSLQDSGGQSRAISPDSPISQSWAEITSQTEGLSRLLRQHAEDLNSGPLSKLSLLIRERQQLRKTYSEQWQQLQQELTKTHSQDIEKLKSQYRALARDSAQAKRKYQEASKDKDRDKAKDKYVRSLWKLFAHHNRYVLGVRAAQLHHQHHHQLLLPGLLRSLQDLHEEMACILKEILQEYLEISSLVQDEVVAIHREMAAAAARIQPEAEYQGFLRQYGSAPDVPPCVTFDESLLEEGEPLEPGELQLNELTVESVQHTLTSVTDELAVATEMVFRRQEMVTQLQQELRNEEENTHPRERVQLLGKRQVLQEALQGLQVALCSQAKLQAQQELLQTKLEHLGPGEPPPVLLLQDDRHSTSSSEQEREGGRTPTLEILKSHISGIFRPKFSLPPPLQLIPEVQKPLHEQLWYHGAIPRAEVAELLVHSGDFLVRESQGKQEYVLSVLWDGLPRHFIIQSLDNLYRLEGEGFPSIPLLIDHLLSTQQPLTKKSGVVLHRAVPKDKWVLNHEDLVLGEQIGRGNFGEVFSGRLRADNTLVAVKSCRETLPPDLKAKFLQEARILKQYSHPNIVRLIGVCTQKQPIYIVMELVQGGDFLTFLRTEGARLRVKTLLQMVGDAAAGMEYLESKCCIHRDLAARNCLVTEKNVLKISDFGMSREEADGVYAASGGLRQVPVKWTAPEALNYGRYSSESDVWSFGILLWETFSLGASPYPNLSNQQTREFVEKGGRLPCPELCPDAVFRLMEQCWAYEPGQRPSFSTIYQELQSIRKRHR

[2] = molecular target: off-target kinases (Homo sapiens, UniProt P10721, T670I); conditions: KIT T670I (mutant), ZLYTE, ATP Km app
Sequence of off-target kinases (Homo sapiens, UniProt P10721, T670I) (P10721 26-976 T670I): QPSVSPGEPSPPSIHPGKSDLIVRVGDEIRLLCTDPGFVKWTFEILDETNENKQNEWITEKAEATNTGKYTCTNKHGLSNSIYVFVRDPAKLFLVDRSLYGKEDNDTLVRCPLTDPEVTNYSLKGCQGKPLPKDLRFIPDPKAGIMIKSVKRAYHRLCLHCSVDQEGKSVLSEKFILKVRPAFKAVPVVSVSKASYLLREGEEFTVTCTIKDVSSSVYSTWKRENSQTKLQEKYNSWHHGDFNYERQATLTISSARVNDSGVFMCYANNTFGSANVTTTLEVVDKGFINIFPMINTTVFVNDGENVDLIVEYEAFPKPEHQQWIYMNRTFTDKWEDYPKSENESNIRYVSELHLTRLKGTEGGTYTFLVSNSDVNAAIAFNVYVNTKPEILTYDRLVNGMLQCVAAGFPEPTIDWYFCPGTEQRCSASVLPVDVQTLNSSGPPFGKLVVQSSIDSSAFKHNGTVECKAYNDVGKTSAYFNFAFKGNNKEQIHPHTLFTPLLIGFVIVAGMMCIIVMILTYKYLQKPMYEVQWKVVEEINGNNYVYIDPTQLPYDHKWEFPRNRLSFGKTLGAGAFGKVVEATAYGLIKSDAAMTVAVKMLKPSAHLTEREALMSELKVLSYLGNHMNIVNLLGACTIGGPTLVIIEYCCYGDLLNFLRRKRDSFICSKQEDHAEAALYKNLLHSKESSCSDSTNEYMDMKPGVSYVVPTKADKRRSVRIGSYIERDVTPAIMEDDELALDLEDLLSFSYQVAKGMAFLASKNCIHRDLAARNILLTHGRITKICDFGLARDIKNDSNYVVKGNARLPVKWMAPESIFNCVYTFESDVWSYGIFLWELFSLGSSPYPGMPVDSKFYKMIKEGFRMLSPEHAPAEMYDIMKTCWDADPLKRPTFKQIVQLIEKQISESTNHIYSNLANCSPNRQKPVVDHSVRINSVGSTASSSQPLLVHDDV

[3] = molecular target: off-target kinases (Homo sapiens, UniProt P17612); conditions: PRKACA (PKA), ZLYTE, ATP Km app
[4] = molecular target: off-target kinases (Homo sapiens, UniProt P36507); conditions: MAP2K2 (MEK2)
Sequence of off-target kinases (Homo sapiens, UniProt P36507) (P36507 whole entry): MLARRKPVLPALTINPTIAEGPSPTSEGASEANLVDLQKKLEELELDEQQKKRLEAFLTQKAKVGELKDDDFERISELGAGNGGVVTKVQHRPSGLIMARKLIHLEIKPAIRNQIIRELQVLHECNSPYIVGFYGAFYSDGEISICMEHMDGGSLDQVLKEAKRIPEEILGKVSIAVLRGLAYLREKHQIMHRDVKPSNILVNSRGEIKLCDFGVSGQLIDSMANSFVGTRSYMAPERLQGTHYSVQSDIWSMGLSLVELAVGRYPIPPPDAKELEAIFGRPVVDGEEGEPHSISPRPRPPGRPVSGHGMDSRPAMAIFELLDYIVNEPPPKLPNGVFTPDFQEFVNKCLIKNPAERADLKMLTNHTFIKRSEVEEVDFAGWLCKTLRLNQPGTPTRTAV

[5] = molecular target: T1, off-target kinases (Homo sapiens, UniProt Q8WTQ7); conditions: GRK7, ZLYTE, ATP Km app
T1 sequence (Q8WTQ7 1-553): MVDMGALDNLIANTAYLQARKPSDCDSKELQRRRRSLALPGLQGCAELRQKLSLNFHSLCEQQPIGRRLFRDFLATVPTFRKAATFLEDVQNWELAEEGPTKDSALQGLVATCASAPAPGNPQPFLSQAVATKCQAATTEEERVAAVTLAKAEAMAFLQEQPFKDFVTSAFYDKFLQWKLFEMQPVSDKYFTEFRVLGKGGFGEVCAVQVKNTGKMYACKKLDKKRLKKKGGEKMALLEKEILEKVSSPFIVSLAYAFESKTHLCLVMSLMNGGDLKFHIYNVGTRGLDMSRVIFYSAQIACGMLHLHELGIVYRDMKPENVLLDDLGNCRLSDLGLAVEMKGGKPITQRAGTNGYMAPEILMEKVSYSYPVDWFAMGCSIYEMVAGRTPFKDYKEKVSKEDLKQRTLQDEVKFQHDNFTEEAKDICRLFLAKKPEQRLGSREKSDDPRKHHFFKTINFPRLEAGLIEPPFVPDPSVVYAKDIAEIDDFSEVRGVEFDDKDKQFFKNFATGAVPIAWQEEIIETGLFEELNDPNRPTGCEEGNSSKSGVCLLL

[6] = molecular target: T2, off-target kinases (Homo sapiens, UniProt Q99759); conditions: MAP3K3 (MEKK3), LanthaScreen Binding
T2 sequence (Q99759 1-626): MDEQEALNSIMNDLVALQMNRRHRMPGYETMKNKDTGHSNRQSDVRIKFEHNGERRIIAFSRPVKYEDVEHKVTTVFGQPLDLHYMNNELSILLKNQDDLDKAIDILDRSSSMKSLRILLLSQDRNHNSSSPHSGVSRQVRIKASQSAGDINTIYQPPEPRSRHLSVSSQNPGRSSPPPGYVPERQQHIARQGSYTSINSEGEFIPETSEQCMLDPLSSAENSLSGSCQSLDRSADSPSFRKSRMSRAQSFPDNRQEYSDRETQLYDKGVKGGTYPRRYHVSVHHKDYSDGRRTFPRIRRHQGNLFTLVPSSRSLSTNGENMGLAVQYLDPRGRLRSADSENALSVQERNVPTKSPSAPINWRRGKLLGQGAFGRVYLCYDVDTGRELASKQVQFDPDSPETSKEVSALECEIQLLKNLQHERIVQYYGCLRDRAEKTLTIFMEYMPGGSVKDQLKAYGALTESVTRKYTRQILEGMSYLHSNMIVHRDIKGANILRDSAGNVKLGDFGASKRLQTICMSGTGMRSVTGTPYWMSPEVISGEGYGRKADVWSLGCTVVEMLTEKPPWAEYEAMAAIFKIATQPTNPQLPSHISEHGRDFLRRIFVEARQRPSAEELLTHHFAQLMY

[7] = molecular target: off-target kinases (Homo sapiens, UniProt Q9H0K1); conditions: SNF1LK2, ATP Km app, ZLYTE
Sequence of off-target kinases (Homo sapiens, UniProt Q9H0K1) (Q9H0K1 whole entry): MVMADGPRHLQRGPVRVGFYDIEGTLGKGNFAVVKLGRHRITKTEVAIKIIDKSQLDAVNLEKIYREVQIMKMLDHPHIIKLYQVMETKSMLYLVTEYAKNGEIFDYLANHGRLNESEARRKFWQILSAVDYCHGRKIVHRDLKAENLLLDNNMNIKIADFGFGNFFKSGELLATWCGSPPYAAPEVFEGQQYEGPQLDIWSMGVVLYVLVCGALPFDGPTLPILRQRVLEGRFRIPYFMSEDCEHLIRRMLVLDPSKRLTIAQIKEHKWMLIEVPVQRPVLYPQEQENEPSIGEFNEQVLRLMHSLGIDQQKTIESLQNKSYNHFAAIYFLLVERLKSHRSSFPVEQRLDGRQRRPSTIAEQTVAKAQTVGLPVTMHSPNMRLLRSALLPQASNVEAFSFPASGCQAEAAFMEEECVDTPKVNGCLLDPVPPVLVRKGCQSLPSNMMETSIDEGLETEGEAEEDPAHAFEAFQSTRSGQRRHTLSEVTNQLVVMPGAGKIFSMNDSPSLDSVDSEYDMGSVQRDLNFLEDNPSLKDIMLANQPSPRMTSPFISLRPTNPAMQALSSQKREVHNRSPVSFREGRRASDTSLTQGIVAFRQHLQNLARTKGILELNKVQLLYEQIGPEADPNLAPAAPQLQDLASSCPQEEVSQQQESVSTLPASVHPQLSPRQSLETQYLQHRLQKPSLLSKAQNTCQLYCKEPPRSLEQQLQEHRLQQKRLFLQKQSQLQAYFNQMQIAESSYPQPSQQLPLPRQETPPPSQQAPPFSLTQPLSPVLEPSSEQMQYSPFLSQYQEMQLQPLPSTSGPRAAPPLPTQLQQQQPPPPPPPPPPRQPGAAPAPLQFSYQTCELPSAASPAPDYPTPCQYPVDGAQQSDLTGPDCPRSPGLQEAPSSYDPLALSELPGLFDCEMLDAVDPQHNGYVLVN

SMILES: N#Cc1cc(-c2ncnc(Nc3ccc(N4CCN(C5COC5)CC4)cc3)n2)ccc1OC1CCOCC1 [Compound 1, 5-(4-((4-(4-(oxetan-3-yl)piperazin-1-yl)phenyl)amino)-1,3,5-triazin-2-yl)-2-((tetrahydro-2H-pyran-4-yl)oxy)benzonitrile]
- inhibition ([1]; read-out: % Inhibition 1): 9%
- inhibition ([1]; read-out: % Inhibition 2): 7%
- inhibition ([1]; read-out: % Inhibition Avg): 8%
- inhibition ([2]; read-out: % Inhibition 1): 6%
- inhibition ([2]; read-out: % Inhibition 2): 7%
- inhibition ([2]; read-out: % Inhibition Avg): 6%
- inhibition ([3]; read-out: % Inhibition 1): 4%
- inhibition ([3]; read-out: % Inhibition 2): 1%
- inhibition ([3]; read-out: % Inhibition Avg): 3%
- inhibition ([4]; LanthaScreen Binding, read-out: % Inhibition 1): 5%
- inhibition ([4]; LanthaScreen Binding, read-out: % Inhibition 2): 5%
- inhibition ([4]; LanthaScreen Binding, read-out: % Inhibition Avg): 5%
- inhibition ([4]; ZLYTE, ATP 100, read-out: % Inhibition 1): 13%
- inhibition ([4]; ZLYTE, ATP 100, read-out: % Inhibition 2): 2%
- inhibition ([4]; ZLYTE, ATP 100, read-out: % Inhibition Avg): 8%
- inhibition ([5]; read-out: % Inhibition 1): 3%
- inhibition ([5]; read-out: % Inhibition 2): 5%
- inhibition ([5]; read-out: % Inhibition Avg): 4%
- inhibition ([6]; read-out: % Inhibition 1): 10%
- inhibition ([6]; read-out: % Inhibition 2): 13%
- inhibition ([6]; read-out: % Inhibition Avg): 12%
- inhibition ([7]; read-out: % Inhibition 1): 88%
- inhibition ([7]; read-out: % Inhibition 2): 88%
- inhibition ([7]; read-out: % Inhibition Avg): 88%
